Structures can show the parent of a compound that is named as a salt. Where two headings read alike, the source gives them in different places.
Legend:
[1] = test system: two-cycle DSS colitis model; assay: Two-cycle DSS colitis model, concomitant RvE1-Mg-di-lysinate and 5-ASA; type: in vivo, mouse; conditions: once-daily, RvE1-Mg-Lys 1.5 ug/d, 5-ASA 625 ug/d, alone or combined; for Colon Length / Normalized Spleen Weight / Total Histopath Score: at sacrifice; for Disease Activity Index: terminal (Day 27)
Protocol: (§1) In the study described in Example 17, a sub-chronic model was used to induce colitis in 8-week old C57B16/J mice by two cycles of DSS separated by a 10-day recovery period. Once-daily RvE1-Mg-di-lysinate treatment (15 ug/day) was initiated on Day 20, after DSS-induced colitis was established, and continued for 7 days via oral gavage, with mice sacrificed at the end of Day 27. This sub-chronic, 2-cycle DSS protocol was used to induce inflammation with an immunological profile that better models human IBD than a single cycle of DSS. Oh S Y et al. Comparison of experimental mouse models of inflammatory bowel disease. Int J Mol Med. 2014; 33(2):333-40. This experimental system also provides a representative model for treating patients with active disease where the therapeutic objective is induction of remission. This is important in human IBD because most patients have recurring disease flares. In addition, this study compared RvE1-Mg-di-lysinate to 5-aminosalicylate (5-ASA), which is used as standard-of-care first-line therapy for induction and maintenance of remission in ulcerative colitis and also for certain phenotypes of Crohn's Disease.
(§2) Disease activity was assessed daily using the same Disease Activity Index (DAI) that was used in Example 16. Following sacrifice, colons were excised, flushed with ice-cold PBS, their lengths were measured. Subsequently, H&E-stained colon tissue sections from each animal were also scored using an established scoring system of histopathological disease activity. See Dieleman L A, Palmen M J, Akol H, et al. Chronic experimental colitis induced by dextran sulphate sodium (DSS) is characterized by Th1 and Th2 cytokines. Clin Exp Immunol. 1998; 114(3):385-91.
In this study, we again used the two-cycle DSS colitis model described above, but with once-daily concomitant therapy of RvE1-Mg-di-lysinate (1.5 ug/day) and 5-ASA (625 ug/day). This co-therapy model was used because many patients that would be candidates for RvE1-Mg-di-lysinate treatment will likely continue taking 5-ASA, as this is common clinical practice even when patient are not well controlled on 5-ASA monotherapy.

[2] = Chemical stability against degradation, HPLC, solid in open test tubes at room temperature; type: physicochemical; conditions: open test tube, room temperature 68-72 F, relative humidity 20-40%
Protocol: The stability of selected SPMs and their ionic derivatives based on Formulas I and IV was evaluated. The parent SPM and its solid ionic derivative were place in open test tubes and maintained at room temperature between 68-72 F and relative humidity between 20-40% for 6 or 8 weeks. […] Briefly, HPLC analysis was performed on a PFP column (Poroshell 120, PFP, 4.6×150 mm, […], Agilent), mounted on a Gilson HPLC system equipped with an ELS detector. The mobile phase consisted of a gradient between solution A, water, and solution B, acetonitrile, both containing 0.1% trifluoroacetic acid. The gradient program was 30-80% with respect to solution B. The flow rate was 0.5 mL/min. The appearance of new HPLC peaks as compared to the baseline HPLC tracing at the initial time point is indicative of decomposition products and the lack of stability. The absence of such new HPLC peaks the subsequent time points is indicative of stability.

[3] = test system: dextran sulfate sodium (DSS) mouse model of colitis; assay: Dextran sulfate sodium (DSS) mouse model of colitis, acute, 7 days DSS; type: in vivo; conditions: RvE1-Mg-di-lysinate 15 ug/day or equimolar RvE1; for Colon Length / Normalized Spleen Weight: at sacrifice after 7 days DSS, once-daily oral gavage; for Disease Activity Index: study day 7, 2% DSS in drinking water 7 days, once-daily oral gavage from day 0
Protocol: A representative compound of Formula IV, RvE1-Mg-di-lysinate, was tested for efficacy in the dextran sulfate sodium (DSS) mouse model of colitis. In this model system, DSS exposure disrupts intestinal barrier function, stimulating local inflammation and inducing a colitis phenotype that mimics the clinical and histopathological features of IBD. See e.g., Laroui H et al. Dextran sodium sulfate (DSS) induces colitis in mice by forming nano-lipocomplexes with medium-chain-length fatty acids in the colon. PLoS ONE. 2012; 7 (3):e32084.
In the present study, 8-week old male C57Bl/6J mice were randomized by weight to three experimental groups and administered 2% DSS (w/v) in drinking water for 7 days. Beginning on study day 0, animals were administered either RvE-Mg-di-lysinate (RvE-Mg-Lys), an equimolar dose of RvE1, or vehicle via once-daily oral gavage. Disease activity was assessed daily using an established Disease Activity Index (DAI). See e.g., Morin C, Blier P U, Fortin S. MAG-EPA reduces severity of DSS-induced colitis in rats. Am J Physiol Gastrointest Liver Physiol. 2016; 310 (10):G808-21. All animals were sacrificed after 7 days of DSS exposure and colons and spleens were harvested. Gross morphological markers of disease activity, including colon length and normalized spleen weight (mg per g body weight) were assessed.
The model system described in Example 16 represents an acute model of human IBD wherein once daily RvE1-Mg-di-lysinate treatment at a dose of 15 ug/day was used in a prophylactic mode to mitigate the onset of intestinal and systemic inflammation induced by administration of DSS. This is relevant to patients in need of maintenance therapy to prevent the recurrence of active disease.

[4] = test system: DSS-induced colitis; assay: Sub-chronic two-cycle DSS colitis model, treatment from Day 20; type: in vivo, mouse; conditions: for Colon Length / Disease Activity Index / Normalized Spleen Weight: Table 7, two cycles of DSS, once-daily oral gavage Day 20-27, 15 ug/day; for Reduction in DAI relative to Disease Control: 15 ug/day oral from Day 20
Protocol: as §1, §2

[5] = Pharmacokinetic analysis of blood and colon tissue after intracolonic administration; type: in vivo; conditions: mouse, 15 ug/day; for Tmax: read-out: RvE1 Tmax (converted)
Description: Pharmacokinetic analysis of blood and colon tissue samples were collected in the course of the intracolonic efficacy study and these confirmed that intracolonic administration of RvE1-Mg-di-lysinate is associated with predominantly local RvE1 exposure and minimal uptake into circulation.

[6] = test system: two-cycle DSS colitis model; assay: Two-cycle DSS colitis model, intracolonic versus oral administration; type: in vivo, mouse; conditions: 15 ug/d, Day 20-27
Description: To further test the biological effects on disease activity of luminal absorption of RvE1 administered orally in the form of RvE1-Mg-di-lysinate, we compared direct intracolonic administration (similar to an enema) with oral administration. Whereas we had previously established that oral administration of RvE1-Mg-di-lysinate results in systemic and local colonic exposure to RvE1, intracolonic administration results in predominantly local exposure. We again used the two-cycle DSS colitis model described above, with treatment initiated on Day 20 and continued for 7 days, with mice sacrificed at the end of Day 27. To facilitate intracolonic drug delivery, mice were anesthetized via exposure to 2-4% isoflurane gas. Intracolonic administration of RvE1-Mg-di-lysinate or vehicle was performed, with all animals inverted for 5 minutes following dose administration. Intracolonic administration of RvE1-Mg-di-lysinate was associated with a significant reduction in DAI (P<0.01), colon length (P<0.05), spleen weight (P<0.05) and histopathological disease activity (P<0.05).

[7] = Single oral dose pharmacokinetics: RvE1 exposure in blood plasma, small intestine tissue and colon tissue; type: in vivo, mouse; conditions: for Timing of RvE1 Cmax: oral administration; for Cmax / Tmax / AUC(0-t): male, C57BL6/J, mouse, single oral dose 10 mg/kg RvE1-Mg-di-lysinate; for AUC(0-t): read-out: AUC0-8 of RvE1
Protocol: To establish the oral pharmacokinetics (PK) of RvE1-Mg-di-lysinate, a study was conducted to investigate RvE1 exposure in blood plasma, small intestine tissue, and colon tissue following a single oral dose of RvE1-Mg-di-lysinate (10 mg/kg) in 8-week old male C57BL6/J mice at various time points up to 8 hours post-dose. RvE1 levels were quantified in all tissue samples by HPLC-MS/MS. Pharmacokinetic curves for all tissue compartments are shown in FIG. 5 and a summary of pharmacokinetic metrics is shown in Table 9.

[8] = at sacrifice Day 27, 15 ug/day oral, P<0.05
[9] = small intestine tissue, Small Intestine

Nc1ccc(O)c(C(=O)O)c1 [Compound 5-ASA, 5-aminosalicylate, reference compound]
Colon Length [1]: 78.7 ± 6.7 mm
Normalized Spleen Weight [1]: 4.1 ± 1.3 mg/g BW
Total Histopath Score [1]: 16 ± 3.8
Disease Activity Index [1]: 3.3 ± 0.8

CC[C@@H](O)/C=C/C=C\C[C@@H](O)/C=C/C=C/C=C\[C@@H](O)CCCC(=O)O [RvE1 Ca di-lysinate, bis(RvE1) calcium L-lysinate salt]
Degradation products by HPLC (chemical stability) ([2]; 6 weeks): No additional peaks corresponding to degradation products were observed

CC[C@@H](O)/C=C/C=C\C[C@@H](O)/C=C/C=C/C=C\[C@@H](O)CCCC(=O)O [RvE1 lys lys, RvE1 (L,L)-lysyllysine salt]
Degradation products by HPLC (chemical stability) ([2]; 8 weeks): without degradation products

CC[C@@H](O)/C=C/C=C\C[C@@H](O)/C=C/C=C/C=C\[C@@H](O)CCCC(=O)O [RvE1, (5S,6Z,8E,10E,12R,14Z,16E,18R)-5,12,18-trihydroxyicosa-6,8,10,14,16-pentaenoic acid, reference compound]
Degradation products by HPLC (chemical stability) ([2]; 8 weeks): extensively degraded
Colon Length [3]: 75.2 ± 7.6 mm
Normalized Spleen Weight [3]: 3.9 ± 0.7 mg/g BW
Disease Activity Index [3]: 5.6 ± 1.1
Colon Length [4]: 75.2 ± 7.6 mm
Disease Activity Index [4]: 5.6 ± 1.1
Normalized Spleen Weight [4]: 3.9 ± 0.7 mg/g BW

CC[C@@H](O)/C=C/C=C\C[C@@H](O)/C=C/C=C/C=C\[C@@H](O)CCCC(=O)O [RvE1-Mg-Lys, bis(RvE1) magnesium L-lysinate salt]
Cmax ([5]; blood, read-out: Blood Cmax of RvE1): 0.48 ng/mL
Tmax ([5]; blood): 15 min
Cmax ([5]; colon tissue, read-out: Colon Cmax of RvE1): 2800 ng/g
Tmax ([5]; colon): 15 min
Degradation products by HPLC (chemical stability) ([2]; 8 weeks, listed as RvE1 Mg di-lysinate): did not exhibit any degradation products
Colon Length [3]: 77.1 ± 7.8 mm
Normalized Spleen Weight [3]: 3.6 ± 0.9 mg/g BW
Disease Activity Index [3]: 4.8 ± 1.3
Colon Length ([6]; Intracolonic): 83.1 ± 5.4 mm
Disease Activity Index ([6]; Intracolonic): 2.6 ± 1.9
Normalized Spleen Weight ([6]; Intracolonic): 4.3 ± 0.9 mg/g BW
Total Histopath Score ([6]; Intracolonic): 15 ± 2.7
Colon Length ([6]; Oral): 82.7 ± 5.6 mm
Disease Activity Index ([6]; Oral): 2.6 ± 1.8
Normalized Spleen Weight ([6]; Oral): 4.4 ± 1.4 mg/g BW
Total Histopath Score ([6]; Oral): 15.9 ± 6.0
Colon Length [1]: 77.3 ± 3 mm
Normalized Spleen Weight [1]: 6.6 ± 0.5 mg/g BW
Total Histopath Score [1]: 17.6 ± 2.7
Disease Activity Index [1]: 3.7 ± 1.6
Reduction in DAI relative to Disease Control ([4]; Day 21, P<0.01): 24%
Reduction in DAI relative to Disease Control ([4]; Day 23, P<0.05): 18%
Colon Length [4]: 77.1 ± 7.8 mm
Disease Activity Index [4]: 4.8 ± 1.3
Normalized Spleen Weight [4]: 3.6 ± 0.9 mg/g BW
Histopathologic disease activity vs Disease Control (in words) ([4]; at sacrifice Day 27, 15 ug/day oral): non-significant reduction
Colon length vs Disease Control (in words) [4, 8]: statistically significant increase
Normalized spleen weight vs Disease Control (in words) [4, 8]: statistically significant reduction
DAI relative to vehicle control (in words) ([4]; study day 27, 15 ug/day oral Day 20-27): statistically significant reduction
Share of total RvE1 detected in colon tissue contributed by the increase at the time of blood plasma Cmax ([7]; colon tissue, 15 minutes after oral dose): less than 2%
Timing of RvE1 Cmax ([7]; colon): 4 h
Cmax ([7]; colon tissue, Colon): 19.8 ng/mL
Tmax ([7]; colon tissue, Colon): 240 min
AUC(0-t) ([7]; colon tissue, Colon): 72.9 ng·h/mL
Cmax ([7]; plasma, Blood): 471 ng/mL
Tmax ([7]; plasma, Blood): 15 min
AUC(0-t) ([7]; plasma, Blood): 128 ng·h/mL
Cmax [7, 9]: 346 ng/mL
Tmax [7, 9]: 120 min
AUC(0-t) [7, 9]: 533 ng·h/mL
Timing of RvE1 Cmax ([7]; small intestine): 2 h

From patent US11191840B2, “Compositions and methods relating to salts of specialized pro-resolving mediators” (Thetis Pharmaceuticals LLC, priority 2017, dated 2021)
